Test results reported in patent publication US20070049538A1, “METHODS FOR USING CUCURBITACIN COMPOUNDS” (SOUTH DAKOTA STATE UNIVERSITY, priority 2005, published 2007).
Like-named read-outs stand apart in the source and are kept apart here.

Tests used:
HepG2 cells [1] = format: cell-based, human
Method: The activity of two toxins was studied first on HepG2 cells—bromobenzene (BB) and CCl4. Cells were challenged with the toxins at different concentration levels. Precipitate formation was observed when BB was diluted with media prior to addition to the cells; therefore, both the precipitate and the supernatant were added separately over cells to study their toxic effect.

[2] = Chromatographic hydrophobicity index (CHI) by RP-HPLC in buffered methanol; format: physicochemical; details: for CHIMeOH: buffered methanol pH 7.0, Econosil C18 150 mm, Eq. (4)
Method: (§1) We used Dynamax liquid chromatograph (Varian Chromatography Systems) with PDA-2 photodiode array UV detector, controlled by the Dynamax PC Chromatography Data System (v. 1.9) software and Dynamax dual pump solvent delivery system, model SD-200. […] Cucurbitacins analytical separation was optimized on Alltima C18 (Alltech; 250 mm×4.6 mm, 5 μm) HPLC column, at gradient elution in acetonitrile (ACN, 30-70% ACN in 57 min), and in MeOH (60-75% MeOH in 50 min). Cucurbitacins stock concentration of 10^−2M in DMSO:ethanol (1:1) was standardized against pure cucurbitacin I (Indofine Chemical Company, Hillsborough, N.J.) by analytical HPLC means. Compounds CHI was measured in both ACN, by using Alltima C18 column, and in MeOH, by using Econosil C18 column (Alltech; 150 mm×4.6 mm, 5 μm). Analytical separations were conducted at a flow rate of 1 ml/min. The aqueous phase was buffered for the CHI measurement. For this purpose, solid ammonium acetate (Fisher Sci. Co., Fair Lawn, N.J.) was dissolved in deionized distilled water at 50 mM final concentration and its pH adjusted to 7.0.
A standard mixture of 10 compounds including 19-21, 23-27, aniline (compound 28) and bromobenzene (compound 29), dissolved in MeOH, was injected at five isochratic elution, at 40, 45, 50, 55, and 60% MeOH. Then the mixture was injected at fast gradient elution to establish the correlation from Eq. (1). The fast linear gradient elution was optimized for 30-100% MeOH in aqueous buffer with 10 min runtime.
(§2) Cucurbitacins lipophilicity was measured by RP-HPLC. […] Due to its high viscosity, aqueous MeOH required a shorter column than the one applied for ACN. First, the C18 columns were calibrated against a standard mixture, and the relationships established between the fast gradient tR and φ0 or published CHI (see Eqs. (2)-(4) from Table 2). Second, cucurbitacins were injected at fast gradient elution under similar conditions, and their CHI calculated (Table 4) from Eqs. (2)-(4). Eqs.

HepG2 cells [3] = assay: cells; details: read-out: EC50 cytoprotection; Table 7; HepG2 against CCl4 toxicity; estimated
Text: Experimental conditions were standardized on silybin. […]
The ratio of IC50-to-EC50 (hereafter T/A) is also indicated in this table, which gives the margin between toxic and cytoprotective concentrations.

HSC-T6 cells [4] = assay: Serum-driven HSC-T6 proliferation, experiment 1 (4 h challenge, two days drug-free growth); format: cell-based, rat; details: HSC-T6, 4 h challenge, then two days drug-free media
Method: The proliferation effect of serum on HSC-T6 cells was optimized and cucurbitacin antiproliferative activity was measured. Serum contains a large number of growth factors, hormones and other nutrients, which help cells to grow and multiply. Several trials were conducted. In experiment 1, cells were challenged with cucurbitacin analogs for 4 h and then cells were grown in drug-free media for two additional days.
HSC-T6 cells were photographed under phase-contrast microscope to record possible changes in cell morphology during experiment 1. […] We are monitoring specifically the effect of compound on the cells, cell recovery after 4 h challenge, and relative cell proliferation. […] Live cells are quantified at the end of the assay (row 4) with MTT dye.
(§3) We established several experimental conditions such as 4 hours of incubation time with cucurbitacin, and 2 day cell incubation with fresh media after challenging with cucurbitacin (Exp. 1). Other experiments involved addition of cucurbitacin for 24 hours over starved cells (Exp. 2) vs. proliferating cells (Exp. 3), and one day incubation of cells with fresh media after challenge. […] Because of that, the challenge time was increased to 24 hours (Exp. 2 and 3).
We modified this approach. Our assay included a second control (ZC) supplemented with no serum intended to measure cucurbitacin anti-proliferation effect relative to the number of cells generated during challenge instead of the total number of cells present in each well.

[5] = Chromatographic hydrophobicity index (CHI) by RP-HPLC in buffered acetonitrile; format: physicochemical; set-up: key: CHI = φ0 (isocratic hydrophobicity index), = A·tR + B; ACN % scale; details: for CHIACN1: buffered acetonitrile pH 7.0, Alltima C18 250 mm, Eq. (2) from isocratic φ0; for CHIACN2: buffered acetonitrile pH 7.0, Eq. (3) calibrated against published CHI
Method: as §1
All standard compounds were purchased from Acros (Acros Organics, NJ). The chromatographic lipophilicity or hydrophobicity was determined applying Valkó's technique (Valkó et al., Anal. Chem. 69 (1997) 2022, the entire disclosure of which is herein incorporated by reference). A standard mixture of seven compounds was prepared in solution: theophylline (compound 19), benzimidazole (compound 20), acetophenone (compound 21), indole (compound 22), propiophenone (compound 23), butyrophenone (compound 24), and valerophenone (compound 25). […] The retention factor, log k=log((tR-t0)/t0), was calculated for each analyte from five good injections of […] sample. The dead time (t0) was measured by injecting NaNO3 together with the sample. Then, the log k values were plotted against isocratic ACN concentrations to establish the linear regression equations for each analyte. From each straight line the isocratic hydrophobicity index was computed, φ0=(intercept/slope). Further, the calibration mixture was injected at fast gradient elution, 0-22 min 0-100% ACN, and three additional minutes at 100% ACN. The φ0 values for the test compounds were plotted against gradient retention time and the linear equation determined from the following equation: φ0=CHI=AtR+B (1)
The gradient elution conditions were similar to the one from the first approach.
as §2

[6] = mouse, in vivo; cited from earlier work
HSC-T6 cells [7] = assay: Serum-driven HSC-T6 proliferation, experiment 3 (24 h, proliferating cells); format: cell-based, rat; details: HSC-T6, 24 h, proliferating cells; read-out: Experiment 3 EC50 (A)
Method: (§4) To overcome this problem, the amount of incubation time was increased to 24 h, and cucurbitacin activity measured on starved (Exp. 2) or proliferative (Exp. 3) cells (Table 8). Cells turned quiescent when serum was not supplemented for one day (Exp. 2). Activity of a few compounds was monitored on quiescent cells, and their activity compared to the ones measured on proliferating cells (Exp. 3).
as §3, with “challenge. The 4 hour incubation period with cucurbitacin triggered anti-proliferation effect. This effect, however, was hindered by a second cycle of cell proliferation during the two-day cell growth period (see silybin, E and I glucosides, and for I-nPr).” for “challenge.”
(§5) In experiment 3, only 40% of the cells divided. The ratio of EC50 values for exp. 2 and exp. 3 varied between 3.6 and 12.7. This may indicate differential cytotoxicity of silybin and cucurbitacin analogs over quiescent and active stellate cells. In other words, compounds show higher anti-proliferative activity on active cells than on quiescent cells.

HepG2 cells [8] = assay: Cucurbitacins cytotoxicity on HepG2 cells (MTT viability assay); format: cell-based, human
Method: HepG2 (human hepatocellular carcinoma, ATCC) cells were grown in EMEM (Gibco, Grand Island, N.Y.) supplemented with 10% fetal bovine serum (FBS), and 1% penicillin/fungizone mixture (Gibco). Thabrew's optimized procedure (Thabrew et al., J. Pharm. Pharmcol. 49 (1994) 1442, the entire disclosure of which is herein incorporated by reference) was followed. Cells were batch cultured for 10 days, then seeded at concentration of 30,000 cells/well in fresh media in 96-well microtiter plastic plates at 37° C. for a day. Then cells were exposed to different concentrations of cucurbitacins at final volume of 100 μl/well. Five-fold serial dilution of compounds was carried out in the plate for five consecutive wells. After 24 h of incubation with chemicals, live cells were visualized using the MTT viability assay (Promega, Madison, Wis.). The absorbance was measured at 570 nm. Negative (without cells) and positive (without test chemicals) controls were also incubated with each plate. […] At least three reproducible experiments were performed per compound with three replicate wells per concentration.
Cells were challenged with cu-curbitacins at various concentrations for a day and then live cells quantified with MTT dye. This period of time measures exclusively compounds cytotoxicity, while longer incubation time may lead to interference from metabolites.

HSC-T6 cells [9] = assay: Cytotoxicity on HSC-T6 cells (experiment 3); format: cell-based, rat; details: read-out: Experiment 3 IC50 (T)
Text: Cytotoxicity of all cucurbitacin analogs was additionally measured in experiment 3 (Table 8).

HSC-T6 cells [10] = assay: Serum-driven HSC-T6 proliferation, experiment 2 (24 h, starved/quiescent cells); format: cell-based, rat; details: HSC-T6, 24 h, starved (quiescent) cells; read-out: Experiment 2 EC50
Method: as §4
as §3, with “challenge. The 4 hour incubation period with cucurbitacin triggered anti-proliferation effect. This effect, however, was hindered by a second cycle of cell proliferation during the two-day cell growth period (see silybin, E and I glucosides, and for I-nPr).” for “challenge.”
as §5

[11] = DPPH* Stable Free Radical Scavenging Assay
Method: Cucurbitacin antioxidant activity was studied first by the DPPH* Stable Free Radical Scavenging Assay (Cotelle et al., Free radical Biology & Medicine 20(1): 35-43, 1996). Experimental conditions were optimized on the standard compound ascorbic acid. Data indicated 30% activity at 50 μM concentration, and 100% activity at 100 μM for ascorbic acid. While the original assay required 10 minutes incubation time for the reaction to occur, this time was increased up to 30 minutes in case cucurbitacin were reacting slower than other reagents.

[12] = in vivo; cited from earlier work
[13] = test system: lipid peroxidation of microsomal suspension; assay: Microsomal Lipid Peroxidation Assay; format: biochemical; details: at 0.1 mM, both chemical and enzymatic assays
Method: Cucurbitacin anti-lipid peroxidation was studied by the Microsomal Lipid Peroxidation Assay (Engineer et al., Biochemical Pharmacology 38(8): 1279-1285, 1989). Lipid peroxidation of microsomal suspension was induced both enzymatically and chemically and validated on the standard compound quercetin. […] Activity of 3 cucurbitacin analogs, B, E, and E-Me-ether was monitored at 0.1 mM indicating no inhibition in either the chemical or enzymatic assay.

[14] = ABTS*+ Radical Cation Decolorization Assay; details: read-out: concentration of 50% inhibition
Method: Cucurbitacin B activity was monitored at 50 μM, 100 μM, and 1.8 mM. The time interval was expanded up to 2 hours in case cucurbitacin B was reacting slowly.

| Structure (SMILES) | EC50 (HepG2 cells [3]) [µM] | EC50 (HSC-T6 cells [4]) [µM] | CHIACN1 [5] | CHIACN2 [5] | EC50 (HSC-T6 cells [7]) [µM] | IC50 (HSC-T6 cells [9]) [µM] | CHIMeOH [2] | EC50 (HSC-T6 cells [10]) [µM] | further results |
| --- | --- | --- | --- | --- | --- | --- | --- | --- | --- |
| Brc1ccccc1 [Bromobenzene (29), bromobenzene, reference compound] |  |  |  |  |  |  |  |  | cell viability (HepG2 cells [1]; HepG2, toxin at 20 nM): no viability; CHIMeOH (b) ([2]; standard compounds, isochratic and gradient elution of standard mixture): 69.43 + 0.07 |
| ClC(Cl)(Cl)Cl [CCl4] |  |  |  |  |  |  |  |  | cell viability (HepG2 cells [1]; HepG2, toxin at 4.5×10^−3 M): ~50% |
| CC(C)(O)/C=C/C(=O)[C@](C)(O)[C@H]1[C@H](O)C[C@@]2(C)[C@@H]3CC=C4[C@@H](C[C@H](O)C(=O)C4(C)C)[C@]3(C)C(=O)C[C@]12C [D, cucurbitacin D] | 9 | 3.8 | 58.31 | 55.83 | 0.07 | 26 | 60.40 |  | capillary permeability [6]: enhanced capillary permeability; IC50 (HepG2 cells [8]; Table 4, 24 h incubation, MTT): 77.3 µM; IC50 (HepG2 cells [8]; Table 5): 77.3 ± 8.7 µM; IC50 (HepG2 cells [8]; Table 7): 77.3 µM |
| CCOC1=CC2C(=CCC3C2(C)C(=O)CC2(C)C(C(C)(O)C(=O)C=CC(C)(C)O)C(O)CC32C)C(C)(C)C1=O (stereo not drawn) [I-Et] |  | 7.95 | 69.99 | 73.94 | 0.34 | 3.5 | 69.61 | 1.4 |  |
| COC1=CC2C(=CCC3C2(C)C(=O)CC2(C)C(C(C)(O)C(=O)C=CC(C)(C)O)C(O)CC32C)C(C)(C)C1=O (stereo not drawn) [I-Me] | 5.3 | 3.4 | 64.84 | 65.95 | 0.11 | 6.4 | 66.58 | 1.4 | IC50 (HepG2 cells [8]; Table 4, 24 h incubation, MTT): 15 µM; IC50 (HepG2 cells [8]; Table 5): 15 ± 5.6 µM; IC50 (HepG2 cells [8]; Table 7): 15 µM |
| COC1=CC2C(=CCC3C2(C)C(=O)CC2(C)C(C(C)(O)C(=O)CCC(C)(C)O)C(O)CC32C)C(C)(C)C1=O [L-Me] | 5 | 10.8 | 64.84 | 65.95 | 0.18 | 6.7 | 66.58 | 1 |  |
| O=C1O[C@H]([C@@H](O)CO)C(O)=C1O [ascorbic acid] |  |  |  |  |  |  |  |  | DPPH activity ([11]; at 50 μM): 30%; DPPH activity ([11]; at 100 μM): 100% |
| CC(=O)OC(C)(C)/C=C/C(=O)[C@@](C)(O)[C@H]1[C@H](O)C[C@@]2(C)[C@@H]3CC=C4[C@@H](CC(=O)[C@@H](O)C4(C)C)[C@]3(C)C(=O)C[C@]12C [iso-B, iso-cucurbitacin B] |  |  | 72.86 | 78.38 |  |  | 68.50 |  | protective and preventive activity [12]: significantly reducing serum enzymes level, steatosis, inflammation, and experimental cholestasis |
| O=c1c(O)c(-c2ccc(O)c(O)c2)oc2cc(O)cc(O)c12 [quercetin, reference compound] |  |  |  |  |  |  |  |  | inhibition of lipid peroxidation [13]: 100% |
| Cc1c(C)c2c(c(C)c1O)CCC(C)(C(=O)O)O2 (stereo not drawn) [trolox, reference compound] |  |  |  |  |  |  |  |  | IC50 [14]: 580 µM |
